Measured values taken from ChEMBL document CHEMBL3508693 (2016).

Key:
[1] = AUCspec of aliskiren hemifumarate following 2 week oral dosing of aliskiren hemifumarate at 10 mg.Kg-1 level studied on […] in male Callithrix jacchus; assay type: ADME, organism-based, Plasma; conditions: marmoset, in vivo, 336 h
[2] = Blood clearance (0-168h) of unlabeled aliskiren hemifumarate following single intravenous administration of aliskiren hemifumarate at 1 mg.Kg-1 level in marmoset; assay type: ADME, organism-based, Callithrix jacchus; conditions: in vivo
[3] = AUC infinity of aliskiren hemifumarate following 2 week oral dosing of aliskiren hemifumarate at 50 mg.Kg-1 level studied on day 1 in male Callithrix jacchus; assay type: ADME, organism-based; conditions: marmoset, plasma, read-out: AUC infinity
[4] = Absolute oral bioavailability of aliskiren hemifumarate after single oral administration of [14C] aliskiren hemifumarate in mouse; assay type: ADME, organism-based, TgRasH2, Plasma; conditions: in vivo, 500 mg/kg
[5] = Cmax/dose of aliskiren hemifumarate following 4 week oral dietary dosing of aliskiren hemifumarate at 2000 mg.Kg-1 level in male mouse; assay type: ADME, organism-based, CB6F1-TGrasH2; conditions: in vivo, 672 h
[6] = AUC(0-24)/dose of aliskiren hemifumarate following repeated oral administration of [14C] aliskiren hemifumarate at 100 mg.Kg-1 level studied in rat; assay type: ADME, organism-based, Albino HAN:WIST, Plasma; conditions: in vivo
[7] = Cmax (0-96h) of unlabeled aliskiren hemifumarate following oral administration of aliskiren hemifumarate at 100 mg.Kg-1 level in rat; assay type: ADME, organism-based; conditions: Albino HAN:WIST, plasma
[8] = Cmax of aliskiren hemifumarate following 8 day once-daily dosing of SPP100B oral solution at 640 mg level studied on day 8 in men; assay type: ADME, organism-based; conditions: male, human, plasma
[9] = Cmax normalised (0-168h) of unlabeled aliskiren hemifumarate following single oral administration of aliskiren hemifumarate at 3 mg.Kg-1 level in marmoset; assay type: ADME, organism-based, Callithrix jacchus, Plasma; conditions: in vivo
[10] = AUC of unlabeled aliskiren hemifumarate following single oral dose of aliskiren hemifumarate at 500 mg.Kg-1 level in mouse; assay type: ADME, organism-based; conditions: TgRasH2, mouse, plasma
[11] = Tmax of aliskiren hemifumarate following 4 week oral dietary dosing of aliskiren hemifumarate at 1500 mg.Kg-1 level in female mouse; assay type: ADME, organism-based; conditions: CB6F1-TGrasH2, mouse, in vivo
[12] = target: CYP2C19 (Homo sapiens, UniProt P33261); experiment: Inhibitory activity of 20 uM SPP100 on 1131 Pmoles of cDNA-derived CYP2C19 enzyme in microsome prepared from human lymphoblastoid cell line; assay type: ADME, microsomes; design: conc 20 uM, interact cpd conc 50 uM; conditions: probe (S)-mephenytoin
[13] = % SPP100 in urine following single oral dose of 300 mg [14C]SPP100 studied in healthy men; assay type: ADME, organism-based; conditions: human, in vivo, at 300 mg
[14] = Terminal elimination half-life of SPP100 following single oral dose of SPP100 75 mg capsule studied in healthy human; assay type: ADME, organism-based; conditions: plasma
[15] = target: T1, CYP2A6 (Homo sapiens, UniProt P11509); experiment: Inhibitory activity of 20 uM SPP100 on 39 Pmoles of cDNA-derived CYP2A6 enzyme in microsome prepared from human lymphoblastoid cell line; assay type: ADME, microsomes; design: conc 20 uM, interact cpd conc 3 uM; conditions: probe coumarine
T1 sequence (P11509 whole entry): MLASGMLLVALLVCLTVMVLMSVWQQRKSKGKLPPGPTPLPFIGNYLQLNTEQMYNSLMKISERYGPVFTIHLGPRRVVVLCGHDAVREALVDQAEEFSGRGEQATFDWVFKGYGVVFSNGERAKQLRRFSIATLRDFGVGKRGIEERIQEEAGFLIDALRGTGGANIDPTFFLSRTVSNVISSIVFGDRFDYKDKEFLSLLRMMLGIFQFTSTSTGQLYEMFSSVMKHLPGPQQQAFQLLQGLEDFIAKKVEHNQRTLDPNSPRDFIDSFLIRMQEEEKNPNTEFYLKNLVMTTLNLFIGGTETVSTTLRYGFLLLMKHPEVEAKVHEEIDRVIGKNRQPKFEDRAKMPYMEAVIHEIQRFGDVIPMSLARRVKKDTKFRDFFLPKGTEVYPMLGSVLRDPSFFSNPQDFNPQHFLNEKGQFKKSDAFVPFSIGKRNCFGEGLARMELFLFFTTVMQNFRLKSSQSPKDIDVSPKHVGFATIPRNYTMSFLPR

[16] = target: CYP2E1 (Homo sapiens, UniProt P05181); experiment: Inhibition of CYP2E1 in human liver microsomes from 10 healthy donors at 200 uM aliskiren (SPP100); assay type: ADME, Microsome; design: conc 200 uM; conditions: probe chlorzoxazone (6-hydroxylation)
[17] = AUC of SPP100 following single oral dose of [14C] aliskiren hemifumarate at 3 mg.Kg-1 level in marmoset; assay type: ADME, organism-based, Callithrix jacchus, Plasma; conditions: in vivo
[18] = Oral clearance of SPP100 following single oral dose of SPP100 150 mg capsule studied in healthy human; assay type: ADME, organism-based; conditions: plasma
[19] = Mean excretion of radioactivity (24-48h) in urine and faeces following single intravenous dose of 10 mg.Kg-1 [14C] aliskiren hemifumarate in rat; assay type: ADME, organism-based, Albino HAN:WIST, Urine/Feces; conditions: in vivo
[20] = Concentration of radioactivity in the brown fat following repeated oral administration of [14C] aliskiren hemifumarate at 100 mg.Kg-1 level studied at 2h after 7th dose in rat; assay type: ADME, organism-based, Albino HAN:WIST, Brown adipose tissue; conditions: in vivo
[21] = Excretion (0-168h) of 14C-radioactivity in faeces following single oral dose of 300 mg [14C]SPP100 studied in healthy men; assay type: ADME, organism-based, Feces; conditions: human, in vivo, at 300 mg
[22] = Mean excretion of radioactivity (0-72h) in urine and faeces following single oral dose of 500 mg.Kg-1 [14C] aliskiren hemifumarate in mouse; assay type: ADME, organism-based, TgRasH2, Urine/Feces; conditions: in vivo
[23] = target: Cytochrome P450 2D6 (Homo sapiens, UniProt P10635); experiment: Metabolic clearance (ul.min.nmol-1 CYP) of aliskiren hemifumarate for CYP2D6 was determined in human liver microsome incubated with [14C]SPP100 hemifumarate; assay type: ADME; conditions: microsomes
[24] = Mean excretion of radioactivity (24-48h) in urine and faeces following single oral dose of 100 mg.Kg-1 [14C] aliskiren hemifumarate in rat; assay type: ADME, organism-based, Albino HAN:WIST, Urine/Feces; conditions: in vivo
[25] = AUC (0-96h) of total radioactivity following oral administration of [14C] aliskiren hemifumarate at 100 mg.Kg-1 level in rat; assay type: ADME, organism-based, Albino HAN:WIST, Plasma; conditions: in vivo
[26] = Excretion of radioactivity (72-96h) in faeces following single intravenous dose of 10 mg.Kg-1 [14C] aliskiren hemifumarate in rat; assay type: ADME, organism-based, Albino HAN:WIST, Feces; conditions: in vivo
[27] = Mean excretion of radioactivity (48-72h) in urine and faeces following single oral dose of 100 mg.Kg-1 [14C] aliskiren hemifumarate in rat; assay type: ADME, organism-based, Albino HAN:WIST, Urine/Feces; conditions: in vivo
[28] = Excretion of radioactivity (0-384h) in faeces following 10 day repeated oral administration of [14C] aliskiren hemifumarate at 100 mg.Kg-1 level studied in rat; assay type: ADME, organism-based, Albino HAN:WIST, Feces; conditions: in vivo
[29] = Excretion of radioactivity (24-48h) in urine following single intravenous dose of 10 mg.Kg-1 [14C] aliskiren hemifumarate in rat; assay type: ADME, organism-based, Albino HAN:WIST; conditions: in vivo
[30] = Excretion of radioactivity (0-24h) in faeces following single oral dose of 100 mg.Kg-1 [14C] aliskiren hemifumarate in rat; assay type: ADME, organism-based, Albino HAN:WIST, Feces; conditions: in vivo

Sequence of Cytochrome P450 2D6 (P10635 whole entry): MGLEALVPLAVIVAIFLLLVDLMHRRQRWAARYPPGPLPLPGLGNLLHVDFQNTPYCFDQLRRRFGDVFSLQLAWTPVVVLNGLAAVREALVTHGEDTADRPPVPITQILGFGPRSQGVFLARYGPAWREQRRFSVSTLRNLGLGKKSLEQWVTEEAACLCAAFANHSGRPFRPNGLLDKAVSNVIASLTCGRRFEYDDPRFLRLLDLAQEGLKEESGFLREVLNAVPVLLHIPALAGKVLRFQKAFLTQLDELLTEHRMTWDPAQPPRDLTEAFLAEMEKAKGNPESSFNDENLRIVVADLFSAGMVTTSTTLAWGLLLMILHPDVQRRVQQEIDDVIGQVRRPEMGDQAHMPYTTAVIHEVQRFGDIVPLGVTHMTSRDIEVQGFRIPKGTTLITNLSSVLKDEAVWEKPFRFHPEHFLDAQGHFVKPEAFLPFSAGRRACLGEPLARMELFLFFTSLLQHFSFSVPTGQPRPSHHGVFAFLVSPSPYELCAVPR
Sequence of CYP2C19 (P33261 whole entry): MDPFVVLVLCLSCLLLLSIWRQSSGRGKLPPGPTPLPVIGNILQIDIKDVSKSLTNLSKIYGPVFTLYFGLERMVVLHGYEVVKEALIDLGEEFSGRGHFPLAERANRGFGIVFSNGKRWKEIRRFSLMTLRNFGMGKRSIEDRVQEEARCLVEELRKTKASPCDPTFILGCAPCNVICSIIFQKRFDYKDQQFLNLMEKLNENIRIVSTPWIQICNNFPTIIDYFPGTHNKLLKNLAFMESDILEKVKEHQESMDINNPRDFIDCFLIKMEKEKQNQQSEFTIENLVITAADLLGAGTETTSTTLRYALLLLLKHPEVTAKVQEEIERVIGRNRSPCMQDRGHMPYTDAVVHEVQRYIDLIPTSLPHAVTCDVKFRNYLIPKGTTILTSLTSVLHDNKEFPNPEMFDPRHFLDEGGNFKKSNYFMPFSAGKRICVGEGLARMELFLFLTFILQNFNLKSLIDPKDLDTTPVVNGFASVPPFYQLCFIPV
Sequence of CYP2E1 (P05181 whole entry): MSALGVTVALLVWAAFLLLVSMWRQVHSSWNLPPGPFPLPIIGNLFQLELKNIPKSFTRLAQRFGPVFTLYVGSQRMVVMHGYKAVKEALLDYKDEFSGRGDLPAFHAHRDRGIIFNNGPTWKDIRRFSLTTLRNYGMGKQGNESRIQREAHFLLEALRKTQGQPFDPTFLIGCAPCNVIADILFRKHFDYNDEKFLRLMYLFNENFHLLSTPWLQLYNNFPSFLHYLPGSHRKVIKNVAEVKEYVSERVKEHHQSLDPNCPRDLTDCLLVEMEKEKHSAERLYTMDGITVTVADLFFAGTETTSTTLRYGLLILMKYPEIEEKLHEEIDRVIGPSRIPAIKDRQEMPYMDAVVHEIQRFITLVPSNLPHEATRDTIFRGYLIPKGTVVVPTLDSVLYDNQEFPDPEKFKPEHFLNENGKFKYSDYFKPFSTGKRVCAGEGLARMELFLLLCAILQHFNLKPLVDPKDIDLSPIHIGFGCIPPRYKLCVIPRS

For `COCCCOc1cc(C[C@@H](C[C@H](N)[C@@H](O)C[C@H](C(=O)NCC(C)(C)C(N)=O)C(C)C)C(C)C)ccc1OC.COCCCOc1cc(C[C@@H](C[C@H](N)[C@@H](O)C[C@H](C(=O)NCC(C)(C)C(N)=O)C(C)C)C(C)C)ccc1OC.O=C(O)/C=C/C(=O)O` [ALISKIREN FUMARATE], the AUC normalised [1] was 3.39 ((ug.h.ml-1)/(mg/kg), the Blood clearance [2] was 0.055 L·h/kg and the AUC(0-inf) [3] was 64 µg·h/mL. For the same compound, the F [4] was 1.5%, the Cmax normalised [5] was 0.22 (ng/mL)/(mg/kg/day) and the “AUC(0-24) normalised” value [6] was 17.2 (nmol.h.L-1)/(mg/kg). For the same compound, the Cmax [7] was 0.27 µM, the Cmax [8] was 0.335 µg/mL and the Cmax normalised [9] was 0.132 (umol/L)/(mg/kg). For the same compound, the AUC [10] was 7.04 µM·h and the Tmax [11] was 0.5 h.
`COCCCOc1cc(C[C@@H](C[C@H](N)[C@@H](O)C[C@H](C(=O)NCC(C)(C)C(N)=O)C(C)C)C(C)C)ccc1OC` showed an inhibition at 20 µM [12] of 5.1%, a Compound recovery [13] of 0.4% and a half-life [14] of 54 h. The inhibition at 20 µM [15] was -2.1%, the inhibition at 200 µM [16] was -12.8% and the AUC [17] was 0.868 µg·h/mL. The CL/F [18] was 5350 mL/min.
For `COCCCOc1cc(C[C@@H](C[C@H](N)[C@@H](O)C[C@H](C(=O)NCC([14CH3])([14CH3])C(N)=O)C(C)C)C(C)C)ccc1OC.O=C(O)/C=C/C(=O)O`, the Radiolabel recovery [19] was 28.9%, the Radiolabel recovery [20] was “OUTCOME = Detected” and the Radiolabel recovery [21] was 90.89%. The Radiolabel recovery [22] was 89.8%, the CL [23] was 74.4 µL·min/nmol and the Radiolabel recovery [24] was 40.2%. For the same compound, the AUC [25] was 5.38 µM·h, the AUC ([25]; iv, 10 mg/kg) was 8.08 µM·h and the Radiolabel recovery [26] was 2.07%. It also gave a Radiolabel recovery [27] of 16.3%, a Radiolabel recovery [28] of 102% and a Radiolabel recovery [29] of 40%. For the same compound, the Radiolabel recovery [30] was 2.96%.
